Data on 5 substances can be found in publication PMC3770654, “Gastric Antimicrobial Peptides Fail to Eradicate Helicobacter pylori Infection Due to Selective Induction and Resistance” (PLoS ONE, 2013).

Read-outs that look alike come from different tables or passages of the source. No end group written: not given here.

Assay [1] deals with H. pylori KaE1, DSM 9691, DSM 10242 and DSM 21031. As to the kind of experiment: Flow cytometric viability assay with DiBAC4(3), four H. pylori strains. The class given is cell-based. To be noted: all 4 H. pylori strains; 20 µg/ml peptide, Schaedler Broth 1:6, 37°C, 90 minutes, DiBAC4(3). The protocol: (§1) The clinical isolate H. pylori KaE1 and the reference strains H. pylori DSM 9691, DSM 10242 and DSM 21031 were tested for susceptibility towards defensins, LL37 and elafin (amino acid sequences Table S1). The strain H. pylori DSM 10242 is positive for the virulence factors VacA and CagA. As control strain for antimicrobial activity served the sensitive E. coli ATCC 25922.
(§2) H. pylori strains were cultured on Columbia blood agar at 37 C° for 2 days in a microaerophilic atmosphere with CampyGen (Oxoid, Hampshire, UK). Subsequently the bacteria were suspended in Schaedler Broth (BD, Sparks, USA) diluted 1:6 with aqua dest. for incubation with antimicrobial peptides.
(§3) Bacterial viability after incubation with antimicrobial peptides or biopsy extracts was analyzed with the membrane potential sensitive dye DiBAC4(3) (bis-(1,3-dibutylbarbituric acid) trimethine oxonol) (Invitrogen, Carlsbad, CA, USA) as described previously. Briefly, 1.5x10^6 mid-logarithmic-phase bacteria/ml of H. pylori or E. coli in Schaedler Broth 1:6 were incubated with 20 µg/ml HBD1-4 (Peptide Institute, Osaka, Japan), elafin (Proteo Biotech, Kiel, Germany for FACS analysis and RDA and elafin from Peptide Institute, Osaka for CFU determination), with LL37 (Innovagen, Lund, Sweden) or with 10 µg total protein of antrum biopsy extracts at 37°C. After 90 minutes 1 µg/ml DiBAC4(3) was added to the suspensions and further incubated for 10 minutes. Then, the suspensions were centrifuged with 4500 x g for 10 minutes, pellets resuspended in 300 µl PBS and bacterial fluorescence was analyzed by a FACSCalibur^TM (BD, Sparks, USA), using Cell Quest software (BD, Sparks, USA). In each sample 10000 bacterial events were analyzed for green fluorescence and the antimicrobial activity was determined as percentage of depolarized, fluorescent bacteria. Inhibition of bacterial growth was tested by plating aliquots on Columbia blood agar and incubating at 37 C° for 2 days in a microaerophilic atmosphere with CampyGen (Oxoid, Hampshire, UK). Then colony forming units (CFU) were counted.

In assay [2] the test system is H. pylori. As to conditions: cited from earlier work; for growth inhibition: ref 19 Kawauchi et al. The source says:
Previously, Hase et al. had tested two H. pylori strains against the antimicrobials HBD1, HBD2 and LL37 and […], one strain tested was resistant to HBD1, while the second strain was sensitive. […] In the study by Hase et al. […] Th ...

For assay [3], the system named is H. pylori KaE1, DSM 9691, DSM 10242 and DSM 21031. As to the kind of experiment: Radial diffusion assay, four H. pylori strains. Type of assay: cell-based. To be noted: 20 µg peptide per well, 3 days, 37 °C; for zones of inhibition in radial diffusion assay: all four Helicobacter strains, microaerophilic. On the procedure: (§4) Additionally to determine inhibition of bacterial growth we performed radial diffusion assays with a modified protocol of the procedure from Robert Lehrer et al.. Briefly, H. pylori was grown on Columbia blood agar (BD, Sparks, USA), suspended in Brain Heart Infusion diluted 1:5 with aqua dest. and plated on an agar containing 20% brain heart infusion with 5% fetal calf serum. Wells with 3 mm diameter were punched into the agar and peptides were applied equivalent to the flow cytometric assay in a concentration of 20 µg per well. The agar plates were incubated for 3 days at 37 °C in a microaerophilic atmosphere with CampyGen.

Assay [4] relates to E. coli ATCC 25922. As to the kind of experiment: Flow cytometric viability assay with membrane potential sensitive dye DiBAC4(3). The class given is cell-based. To be noted: 20 µg/ml peptide, 1.5x10^6 bacteria/ml in Schaedler Broth 1:6, 37°C, 90 minutes, then DiBAC4(3) 10 minutes, 10000 events. On the procedure: as §1, §3
The test system of assay [5] is H. pylori DSM 10242. As to the kind of experiment: Plating on Columbia blood agar with CFU counting. The class given is cell-based. To be noted: peptide 20 µg/ml, means of two independent experiments, control 6.10 x 10^5. On the procedure:
as §2, §3

In assay [6] the test system is H. pylori DMS 9691. Nature of the assay: Plating on Columbia blood agar with CFU counting. The class given is cell-based. As to conditions: peptide 20 µg/ml, means of two independent experiments, control 8.85 x 10^5. The protocol: as §2, §3
Assay [7] deals with H. pylori DSM 21031. Nature of the assay: Plating on Columbia blood agar with CFU counting. The class given is cell-based. To be noted: peptide 20 µg/ml, means of two independent experiments, control 7.45 x 10^5. On the procedure:
as §2, §3

For assay [8], the system named is H. pylori KaE. Nature of the assay: Plating on Columbia blood agar with CFU counting. Type of assay: cell-based. As to conditions: peptide 20 µg/ml, means of two independent experiments, control 1.42 x 10^6. On the procedure:
as §2, §3

In assay [9] the test system is H. pylori DSM 10242. Nature of the assay: Flow cytometric viability assay with DiBAC4(3). Type of assay: cell-based. To be noted: 20 µg/ml peptide, 37°C, 90 minutes. On the procedure:
as §1, §2
(§5) Bacterial viability after incubation with antimicrobial peptides or biopsy extracts was analyzed with the membrane potential sensitive dye DiBAC4(3) (bis-(1,3-dibutylbarbituric acid) trimethine oxonol) (Invitrogen, Carlsbad, CA, USA) as described previously. […] Then, the suspensions were centrifuged with 4500 x g for 10 minutes, pellets resuspended in 300 µl PBS and bacterial fluorescence was analyzed by a FACSCalibur^TM (BD, Sparks, USA), using Cell Quest software (BD, Sparks, USA). In each sample 10000 bacterial events were analyzed for green fluorescence and the antimicrobial activity was determined as percentage of depolarized, fluorescent bacteria. […] Then colony forming units (CFU) were counted.

Assay [10] has as its system H. pylori KaE1. As to the kind of experiment: Flow cytometric viability assay with DiBAC4(3). The class given is cell-based. To be noted: 20 µg/ml peptide, 37°C, 90 minutes. The protocol:
as §1, §2, §5

In assay [11] the test system is H. pylori KaE1. Nature of the assay: Radial diffusion assay. The class given is cell-based. To be noted: 20 µg peptide per well, 3 days, 37 °C. On the procedure:
as §4

The subject of assay [12] is H. pylori DSM 21031. As to the kind of experiment: Radial diffusion assay. Type of assay: cell-based. To be noted: 20 µg peptide per well, 3 days, 37 °C. On the procedure:
as §4

In assay [13] the test system is H. pylori KaE1. As to the kind of experiment: Transmission electron microscopy of peptide-treated bacteria. The class given is cell-based. To be noted: H. pylori KaE1, 1.5x10^8 bacteria, 200 µg peptide/ml, 2 hours. On the procedure:
For electron microscopy 1.5x10^8 bacteria were incubated with 200 µg peptide/ml for 2 hours. Subsequently bacteria were fixed with Karnovsky solution, embedded in agarose, coagulated, cut in blocks and fixed once more in Karnovsky. After post fixation and embedding in glycid ether the specimen were cut with an ultra microtome. Sections of 30 nm were rinsed on copper grids and investigated with a Zeiss LIBRA 120 transmission electron microscope.

In assay [14] the test system is E. coli ATCC 25922. As to the kind of experiment: Binding of antimicrobial peptides to bacterial cells (flow cytometry, Streptavidin-PE). To be noted: 20 µg/ml biotinylated LL37 or 20 µg/ml HBD2 with biotinylated HBD2-antibody, 30 minutes. On the procedure: (§6) To investigate whether HBD2 and LL37 bind to the bacterial cell membrane, we incubated E. coli or H. pylori in Schaedler Broth 1:6 with 20 µg/ml biotinylated LL37 (Innovagen, Lund, Sweden) or 20 µg/ml HBD2 (Peptide Institute, Osaka, Japan) for 30 minutes. After centrifugation a biotinylated HBD2-antibody was added to the in PBS resuspended pellet of the HBD2 samples (Peprotech, Hamburg, Germany). Following washing with PBS, binding of biotinylated LL37 or of the HBD2-antibody was detected with Streptavidin-PE (BD Biosciences, Heidelberg, Germany). Suspensions incubated with HBD2 antibody and Streptavidin served as control. Fluorescence 2 of 10 000 events was measured with the FACSCalibur.

Assay [15] has as its system H. pylori. The description is as above. As to conditions: 20 µg/ml biotinylated LL37 or 20 µg/ml HBD2 with biotinylated HBD2-antibody, 30 minutes. The protocol:
as §6

With “Asp - His - Tyr - Asn - Cys - Val - Ser - Ser - Gly - Gly - Gln - Cys - Leu - Tyr - Ser - Ala - Cys - Pro - Ile - Phe - Thr - Lys - Ile - Gln - Gly - Thr - Cys - Tyr - Arg - Gly - Lys - Ala - Lys - Cys - Cys - Lys (disulfide) [HBD1, recombinant constitutive defensin HBD1 (gene name DEFB1), Peptide Institute, Osaka]”, the depolarized bacteria result in assay [1] is “less than 5%”; in assay [4], 37%. Besides, the “eradication (CFU)” value in [2] (10^-5 M recombinant HBD1 in hypotonic buffer, ref 21 George et al.) is on record as “absolute eradication”. The “reduction of CFU” value in [2] (10^-7 M recombinant HBD1 in hypotonic buffer, ref 21 George et al.) is “about 50%”. For the same substance, in assay [3], the “zones of inhibition in radial diffusion assay” value (“zones of inhibition” for short) was “no zones of inhibition”. Further, the Colony forming units in [5] is 6.85 x 10^5 CFU/ml; in assay [6] it was 8.61 x 10^5 CFU/ml; in assay [7], 7.15 x 10^5 CFU/ml; in assay [8] it was 1.32 x 10^6 CFU/ml.
Turning to “ELDRICGYGTARCRKKCRSQEYRIGRCPNTYACCLRK (disulfide (positions not given here)) [HBD4, recombinant defensin HBD4 (DEFB104A), Peptide Institute, Osaka]”, the “zones of inhibition” value in [3] is reported as “no zones of inhibition”. The substance also showed a depolarized bacteria in [4] of 43%. For the same substance, the Colony forming units was 4.95 x 10^5 CFU/ml in assay [5], 8.25 x 10^5 CFU/ml in assay [6], 6.90 x 10^5 CFU/ml in assay [7] and 1.26 x 10^6 CFU/ml in assay [8]. Besides, the depolarization level is reported as 12% in assay [9] and 8% in [10].
On to “Gly - Ile - Gly - Asp - Pro - Val - Thr - Cys - Leu - Lys - Ser - Gly - Ala - Ile - Cys - His - Pro - Val - Phe - Cys - Pro - Arg - Arg - Tyr - Lys - Gln - Ile - Gly - Thr - Cys - Gly - Leu - Pro - Gly - Thr - Lys - Cys - Cys - Lys - Lys - Pro (disulfide) [HBD2, human beta defensin 2, recombinant inducible defensin HBD2 (DEFB4A), Peptide Institute, Osaka]”, for which the depolarized bacteria entry in [1] was “less than 5%”; in assay [4] it was 51%. Moreover, the “zones of inhibition” value in assay [11] and in assay [12] was “small inhibition zones” in each case. The growth inhibition in assay [2] (30 µg/ml HBD2) is reported as 70%; in [2] (50 µg/ml HBD2) it was “complete inhibition”. The “effect on bacterial viability” value in [2] (ref 20 Hase et al.) was “no effect on bacterial viability”. In addition, the “growth in radial diffusion assay” value in assay [3] (the two other strains (not KaE1, not DSM 21031)) is recorded as “not influenced”. Besides, the “disintegration of bacterial cells (electron microscopy)” value in [13] was “much less disintegration”. Besides, the Colony forming units in [5] is recorded as 5.92 x 10^5 CFU/ml; in assay [6], 7.90 x 10^5 CFU/ml; in assay [7] it was 6.07 x 10^5 CFU/ml; in [8] it was 0.89 x 10^6 CFU/ml. Further, the “binding to the bacterial surface” value in assay [14] and in assay [15] was “accumulated on the surface” throughout.
On to “Gly - Ile - Ile - Asn - Thr - Leu - Gln - Lys - Tyr - Tyr - Cys - Arg - Val - Arg - Gly - Gly - Arg - Cys - Ala - Val - Leu - Ser - Cys - Leu - Pro - Lys - Glu - Glu - Gln - Ile - Gly - Lys - Cys - Ser - Thr - Arg - Gly - Arg - Lys - Cys - Cys - Arg - Arg - Lys - Lys (disulfide) [HBD3, recombinant inducible defensin HBD3 (DEFB103A), Peptide Institute, Osaka]”, for which the depolarized bacteria is recorded as 34-78% in [1] and 90% in [4]. In assay [2] (ref 21 George et al.), the “effectiveness against H. pylori among defensins” value is recorded as “most effective against H. pylori”. In assay [3], the “zones of inhibition” value is listed as “pronounced zones”. Besides, the “disintegration of bacterial cells (electron microscopy)” value in assay [13] was “more pronounced disintegration”. In addition, the Colony forming units in [5] was 1.14 x 10^5 CFU/ml; in assay [6], 0.20 x 10^5 CFU/ml; in assay [7] it was 1.55 x 10^5 CFU/ml; in assay [8] it was 0.08 x 10^6 CFU/ml.
With “Leu - Leu - Gly - Asp - Phe - Phe - Arg - Lys - Ser - Lys - Glu - Lys - Ile - Gly - Lys - Glu - Phe - Lys - Arg - Ile - Val - Gln - Arg - Ile - Lys - Asp - Phe - Leu - Arg - Asn - Leu - Val - Pro - Arg - Thr - Glu - Ser [LL37, amphipathic α-helical cathelicidin LL37 (CAMP), Innovagen, Lund]”, the depolarized bacteria in assay [1] is 62-85%; in [4] it was 87%. Also, the “zones of inhibition” value in [3] is “pronounced zones”. Also, the Colony forming units was 0.15 x 10^5 CFU/ml in [5], 0.35 x 10^5 CFU/ml in [6], 0.41 x 10^5 CFU/ml in assay [7] and 0.09 x 10^6 CFU/ml in assay [8]. Further, the “binding to the bacterial surface” value in [14] and in [15] was “accumulated on the surface” each time.
